Measured values from patent publication US20250213585A1, “COMPOSITIONS AND METHODS OF A CONCOMITANT THERAPY OF ALTERNATING ELECTRIC FIELDS AND NOTCH-1 INHIBITOR” (NOVOCURE GMBH, priority 2023, published 2025).
“Also recorded” adds a separate entry of the source.

Legend:
cells = experiment: Combination of Notch1 inhibitor with an alternating electric field (FIGS. 4, 8); type: cell-based
Notch1 protein = experiment: TTFields-mediated degradation of Notch1 protein with degradation pathway inhibitors (FIG. 11E); type: cell-based; conditions: TTFields treatment
Source text: Reduction of Notch1 level by TTFields was also confirmed by immunofluorescence staining (FIGS. 11C and D). The intracellular protein degradation mechanism primarily involves proteasomal and lysosomal degradation pathways. To further elucidate the mechanism of TTFields-mediated degradation of Notch1 protein, lysosomal inhibitor Leupeptin and proteasomal inhibitor MG132 were employed (FIG. 11E). […] Lysosomal degradation of proteins, particularly those located on cell membrane such as Notch1, often involves cell membrane.
Protein levels were evaluated through Western Blot analysis, following the established protocol. The antibodies employed in the study are listed below. Rabbit notch1 (Abcam, ab52627), Rabbit Cleaved Notch1 (CST, 4147S), Mouse anti-GAPDH (Abclonal, A19056), Rabbit anti-Tubulin (Abclonal, AC015), Rabbit anti-Hes1 (ab108937), rabbit anti-Hes5 (Abclonal A16237), rabbit anti-Hey1 (Abclonal A16110), rabbit anti-Myc (Selleck, A5011), anti-rabbit CD133 (Abcam, ab19898), anti-mouse Sox2 (Abcam, ab79351), anti-Rabbit Nestin (Abcam), and Anti-mouse lamp1.

U87 = experiment: Cell viability of glioblastoma cell line U87 (FIGS. 6, 7); type: cell-based
Experimental: (§1) For short-term experiments, such as detecting the degradation process of glioblastoma cells under TTFields, U87, U251, LN229, and T98 cell suspensions (450 μL, 100,000 cells per well) were evenly spread on 24 mm cell culture slides. After overnight incubation, the cells were transferred to in vitro dishes and supplemented with 2 mL fresh culture medium. The treatment frequency was 200 kHz, with a treatment field strength of 1.62 V/cm RMS, for a duration of 24 hours. For long-term combination experiments, involving the combined use of RO4929097 or Notch1 gene knockdown with TTFields, cells (450 μL, 40,000 cells per well) were treated with a field strength of 1.19 V/cm RMS and a frequency of 200 kHz for 72 hours. The concentration of RO4929097 drug was varied. For organoid experiments, 3-5 GBOs were added to each well, and fresh GBO medium was replaced. The treatment field strength was 1.19 V/cm RMS, with a frequency of 200 kHz, for treatment durations of 24 and 48 hours.

U251 = experiment: Cell viability of glioblastoma cell line U251 (FIGS. 6, 7); type: cell-based
Experimental: as §1

[1] = test system: glioma cell lines including U87, U251, and LN229; experiment: Validation assays with TTFields in glioma cell lines (EdU incorporation, cell counting; FIGS. 10A-C); type: cell-based
Experimental: It was first analyzed whether Notch1 antagonization sensitized glioma cell lines to TTFields treatment. Validation assays were conducted across multiple glioma cell lines including U87, U251, and LN229. The Notch1 inhibitor RO4929097 was used to probe whether it synergizes with TTFields. […] In the validation assays, experimental cohorts were divided into four groups: control (DMSO), TTFields treatment alone, Notch1 inhibitor RO4929097, and TTFields plus RO4929097.
as §1

glioma cells [2] = experiment: Clonogenic (colony formation) assay after treatment (FIGS. 5, 10D); type: cell-based
Experimental: as §1, with “48 hours. Following treatment with TTFields and corresponding conditions, 500-1000 cells were selected from each group and seeded in 6-well dishes. The cells were cultured at 37 degrees Celsius with 5% CO2 for a period of 7-10 days, with medium replacement every 3 days. […]” for “48 hours.”

glioma cells [3] = experiment: Sensitization of glioma cells to temozolomide (FIGS. 7, 10E); type: cell-based; conditions: Notch1 inhibitor in combination with temozolomide
[4] = test system: patient-derived glioblastoma organoids (GBOs); experiment: EdU staining of patient-derived glioblastoma organoids with TTFields (FIG. 13I); type: cell-based
Experimental: as §1

glioblastoma = conditions: cited from earlier work
[5] = 5 μM Notch1 inhibitor alone, FIG. 6
[6] = 5 μM Notch1 inhibitor alone, FIG. 7
[7] = 20 μM Notch1 inhibitor alone, FIG. 6
[8] = 20 μM Notch1 inhibitor alone, FIG. 7
[9] = 250 μM Temozolomide and 5 μM Notch1 inhibitor concomitant, FIG. 7
[10] = 250 μM Temozolomide and 20 μM Notch1 inhibitor concomitant, FIG. 7
[11] = TTFields and 5 μM Notch1 inhibitor concomitant, FIG. 6
[12] = TTFields and 20 μM Notch1 inhibitor concomitant, FIG. 6
[13] = phase I and II clinical trials for glioblastoma

C[C@H](NC(=O)Cc1cc(F)cc(F)c1)C(=O)N[C@H](C(=O)OC(C)(C)C)c1ccccc1 [DAPT]
therapeutic efficacy of the alternating electric field (cells; DAPT combined with an alternating electric field, FIG. 8): enhances the therapeutic efficacy

CC(=O)N[C@@H](CC(C)C)C(=O)N[C@@H](CC(C)C)C(=O)N[C@H](C=O)CCCNC(=N)N [Leupeptin]
effect on TTFields-induced degradation of Notch1 protein (Notch1 protein): blocked

CC(C)(C(=O)NCC(F)(F)C(F)(F)F)C(=O)N[C@@H]1C(=O)Nc2ccccc2-c2ccccc21 [RO4929097]
cell viability (U87; [5]): 80%
cell viability (U87; [6]): no change in viability
cell viability (U87; [7]): around 60%
cell viability (U87; [8]): around 80%
cell viability (U87; [9]): no change in viability
cell viability (U87; [10]): no change in viability
cell viability (U87; [11]): 20%
cell viability (U87; [12]): 20%
cell viability (U251; [5]): no change in viability
cell viability (U251; [6]): no change in viability
cell viability (U251; [7]): around 60%
cell viability (U251; [8]): around 80%
cell viability (U251; [9]): no change in viability
cell viability (U251; [10]): no change in viability
cell viability (U251; [11]): 20%
cell viability (U251; [12]): 20%
cytotoxicity in EdU incorporation assays ([1]; RO4929097 alone, FIGS. 10A and B): minimal cytotoxicity
therapeutic sensitization in EdU incorporation assays ([1]; RO4929097 combined with TTFields, FIGS. 10A and B): noticeable enhancement in therapeutic sensitization
growth suppression by TTFields ([1]; combined with TTFields, FIG. 10 legend): enhances growth suppression
colonogenic abilities following re-seeding after treatment (glioma cells [2]; Notch1 inhibitor alone, FIG. 5): no significant impact
clonogenic ability / long-term proliferative potential (glioma cells [2]; Notch1 inhibitor combined with TTFields / alternating electric field, re-seeding after treatment): synergy; also recorded: sensitization effect
sensitization to / killing by temozolomide (TMZ) (glioma cells [3]): did not sensitize
sensitization to / killing by temozolomide (TMZ) (glioma cells [3]; listed as Notch1 inhibitor): no effect
sensitization to / killing by temozolomide (TMZ) (glioma cells [3]; listed as RO): does not enhance killing
cytotoxicity by Edu staining in GBOs ([4]; Notch1 inhibitor alone): no apparent cytotoxicity
effect with TTFields by Edu staining in GBOs ([4]; combined with TTFields): clear synergistic effect
sensitization of alternating electric field therapy (cells; RO4929097 combined with an alternating electric field, low-intensity, long duration, FIGS. 4 and 5): sensitizes alternating electric field therapy
safety profile (glioblastoma; glioblastoma / recurrent GB patients): favorable safety profile
blood-brain barrier penetration (glioblastoma; [13]): favorable blood-brain barrier penetration
expression of Notch1 downstream genes in tumor cells (glioblastoma; [13]): reduce expression of Notch1 downstream genes

Cn1nnc2c(C(N)=O)ncn2c1=O [Temozolomide]
viability at 250 µM (U87; Homo sapiens, U-87 MG, 250 μM Temozolomide alone, FIG. 7): 75%
viability at 250 µM (U251; Homo sapiens, U-251, 250 μM Temozolomide alone, FIG. 7): 75%
